Test results reported in patent publication US9718812B2, “Substituted thiazole or oxazole P2X7 receptor antagonists” (Axxam S.P.A., priority 2014, dated 2017).

How the values were obtained:
Format in all cases: cell-based
P2X7 receptor [1] = biological target: T1, P2X7 receptor (Homo sapiens (Human), UniProt Q99572); assay: YO-PRO-1 Uptake Assay (large pore form, Bz-ATP stimulated); details: HEK-293 cells stably transfected with P2X7 receptor; Bz-ATP EC80 (30 μM); 5 μM YO-PRO-1
Method in brief: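 IC50 values derive from percent inhibition versus A438079, using large-pore YO-PRO-1 (5 μM) entry into P2X7-transfected HEK-293 cells. Buffer held 0.3 mM Ca2+ and no Mg2+; after 5 min with test compound, cells were challenged with Bz-ATP at EC80 (30 μM, 3× concentration) and fluorescence recorded 60 min.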

P2X7 receptor (hP2X7) = P2X7 receptor (hP2X7) (Homo sapiens (Human), UniProt Q99572); assay: Screen Quest Fluo-8 No Wash Calcium Assay (Bz-ATP-induced Ca2+ influx, FLIPR TETRA); details: HEK-293 cells stably transfected with P2X7 receptor, Fluo-8 calcium, Low Divalent Cation Assay Buffer
Method in brief: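 Read-out is Fluo-8 NW fluorescence recorded over a 5-min kinetic window, reporting Bz-ATP-evoked Ca2+ entry. Cells: HEK-293 stably expressing the P2X7 receptor, dye-loaded for 1 h at room temperature before compound injection.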

P2X7 receptor [2] = biological target: T1, P2X7 receptor; assay: human P2X7 channel assay by automated patch-clamp (QPatch 16X); details: HEK-293 cells expressing P2X7 channels, 100 microM BzATP, held at -80 mV, read-out: hP2X7 (IC50; nM)
Experimental: In order to directly monitor the block of P2X7 channel, an electrophysiological assay was developed and implemented on the QPatch 16X automated electrophysiology instrument.
HEK-293 cells expressing the P2X7 channels were cultured in modified EMEM.
72 hours before experiment, 5 million cells were seeded onto T225 flasks. Just before the experiment cells were washed twice, detached from the flask with trypsin-EDTA, re-suspended in the suspension solution and placed on the QPatch 16x.
The compounds (20 mM in a 100% DMSO) stored at −20° C. were prepared the day of the experiment (a first dilution 1:20 in 100% DMSO to prepare a 1 mM stock solution, then a 1 microM solution in external solution+a serial dilution 1:10).
The standard whole-cell voltage clamp experiments were performed at room temperature. For these experiments the multihole technology was used and the data were sampled at 2 KHz.
The intracellular solution contained (mM) 135 CsF, 10 NaCl, 1 EGTA, 10 HEPES, (pH 7.2 with CsOH) whereas the extracellular contained (mM) 145 NaCl, 4 KCl, 0.5 MgCl2, 1 CaCl2, 10 HEPES, 10 Glc (pH 7.4 with NaOH).
After establishment of the seal and the passage in the whole cell configuration, the cells were held at −80 mV. The P2XR7 current was evoked by applying 100 microM of BzATP alone (4 times) and then in the presence increasing concentrations of the compound under investigation (1, 10, 100 and 1000 nM).
The pre-incubation periods 5 to 8 contain increasing concentrations of the compound of interest (1, 10, 100 and 1000 nM), as illustrated in Figure (application protocol).
The maximal inward current evoked by BzATP in absence or presence of increasing concentrations of the compounds under investigation was measured and normalized.
Y: normalized response, 100% down to 0%, decreasing as X increases.
Log IC50: same log units as X
HillSlope: slope factor or HS, unitless

T1 sequence (Q99572 whole entry): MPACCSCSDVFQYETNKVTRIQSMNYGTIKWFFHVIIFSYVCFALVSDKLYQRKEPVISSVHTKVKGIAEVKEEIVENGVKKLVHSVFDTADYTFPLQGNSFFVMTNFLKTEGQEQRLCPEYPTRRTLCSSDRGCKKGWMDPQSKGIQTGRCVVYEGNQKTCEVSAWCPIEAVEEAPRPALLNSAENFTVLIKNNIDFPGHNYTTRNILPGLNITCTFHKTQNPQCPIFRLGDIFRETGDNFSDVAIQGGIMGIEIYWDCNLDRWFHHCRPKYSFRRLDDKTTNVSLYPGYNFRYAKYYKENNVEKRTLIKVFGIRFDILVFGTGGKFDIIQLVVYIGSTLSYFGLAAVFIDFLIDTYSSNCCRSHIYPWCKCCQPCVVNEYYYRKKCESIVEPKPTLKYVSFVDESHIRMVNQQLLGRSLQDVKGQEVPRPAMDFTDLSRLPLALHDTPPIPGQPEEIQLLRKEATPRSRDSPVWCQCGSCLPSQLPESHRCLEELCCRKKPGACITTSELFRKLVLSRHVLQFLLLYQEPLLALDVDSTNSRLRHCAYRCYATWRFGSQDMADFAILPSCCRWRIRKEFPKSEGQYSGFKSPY
Sequence of P2X7 receptor (hP2X7) (Q99572 whole entry): as above

| IC50 (P2X7 receptor [1]) [nM] | IC50 (P2X7 receptor (hP2X7)) [nM] | IC50 (P2X7 receptor [2]) [nM] | SMILES |
| --- | --- | --- | --- |
| 55 | 242 | 69.2 | Cc1ncsc1C(CNC(=O)c1c(F)cccc1Cl)N1CCC(OCc2ccccc2)CC1 (stereo not drawn) [Compound 59, N-{2-[4-(benzyloxy)piperidin-1-yl]-2-(4-methyl-1,3-thiazol-5-yl)ethyl}-2-chloro-6-fluorobenzamide] |
| 4080 | 469 | 947 | Cc1ncsc1C(CNC(=O)c1c(F)cccc1Cl)N1CCOCC1 (stereo not drawn) [Compound 35, 2-chloro-6-fluoro-N-[2-(4-methyl-1,3-thiazol-5-yl)-2-(morpholin-4-yl)ethyl]benzamide] |
| 124 | 280 | 56.3 | Cc1ncc(C(CNC(=O)c2cc(-c3ncc(F)cn3)ccc2Cl)N2CCC(F)(F)CC2)s1 (racemic) [Compound 61, 2-chloro-N-[2-(4,4-difluoropiperidin-1-yl)-2-(2-methyl-1,3-thiazol-5-yl)ethyl]-5-(5-fluoropyrimidin-2-yl)benzamide] |
| 287 | 108 | 117 | O=C(NCC(c1scnc1C(F)(F)F)N1CCC(F)(F)CC1)c1c(F)cccc1Cl (stereo not drawn) [Compound 67, 2-chloro-N-[2-(4,4-difluoropiperidin-1-yl)-2-[4-(trifluoromethyl)-1,3-thiazol-5-yl]ethyl]-6-fluorobenzamide] |
| 58 | 22 | 82.5 | Cc1ncsc1C(CNC(=O)c1cc(-c2ncc(F)cn2)ccc1Cl)N1CCCC(F)(F)C1 (stereo not drawn) [Compound 66, 2-chloro-N-[2-(3,3-difluoropiperidin-1-yl)-2-(4-methyl-1,3-thiazol-5-yl)ethyl]-5-(5-fluoropyrimidin-2-yl)benzamide] |
| 24 | 27 | 22.7 | Cc1cccc(C)c1C(=O)NCC(c1cncs1)N1CCC(F)(F)CC1 (stereo not drawn) [Compound 14, N-[2-(4,4-difluoropiperidin-1-yl)-2-(1,3-thiazol-5-yl)ethyl]-2,6-dimethylbenzamide] |
| 60 | 30 | 78.1 | Cc1ncsc1C(CNC(=O)c1cc(-c2cnccn2)ccc1Cl)N1CCC(F)(F)CC1 (stereo not drawn) [Compound 72, 2-chloro-N-[2-(4,4-difluoropiperidin-1-yl)-2-(4-methyl-1,3-thiazol-5-yl)ethyl]-5-(pyrazin-2-yl)benzamide] |
| 87 | 55 | 65.2 | Cc1cccc(-c2ccc(Cl)c(C(=O)NCC(c3scnc3C)N3CCC(F)(F)CC3)c2)n1 (stereo not drawn) [Compound 74, 2-chloro-N-[2-(4,4-difluoropiperidin-1-yl)-2-(4-methyl-1,3-thiazol-5-yl)ethyl]-5-(6-methylpyridin-2-yl)benzamide] |
| 36 | 43 | 33.9 | O=C(NCC(c1cnco1)N1CCC(F)(F)CC1)c1cc(-c2ncc(F)cn2)ccc1Cl (stereo not drawn) [Compound 47, 2-chloro-N-[2-(4,4-difluoropiperidin-1-yl)-2-(1,3-oxazol-5-yl)ethyl]-5-(5-fluoropyrimidin-2-yl)benzamide] |

| SMILES | IC50 (P2X7 receptor [1]) [nM] | IC50 (P2X7 receptor (hP2X7)) [nM] | IC50 (P2X7 receptor [2]) [nM] |
| --- | --- | --- | --- |
| Cc1ncoc1C(CNC(=O)c1ccc(-c2ncc(F)cn2)cc1Cl)N1CCc2ccccc2C1 (stereo not drawn) [Compound 57, 2-chloro-4-(5-fluoropyrimidin-2-yl)-N-[2-(4-methyl-1,3-oxazol-5-yl)-2-(1,2,3,4-tetrahydroisoquinolin-2-yl)ethyl]benzamide] | 197 | 214 | 71 |
